Laboratory results as given in publication PMC12313019, “Fibrotic lung ECM upregulates SDC4/integrin-αvβ1 interaction and the interfering peptide SDC4_87-131 and its derivative peptides alleviate pulmonary fibrosis” (Regenerative Biomaterials, 2025).

Experiments:
NIH3T3 cells = test: RT-PCR of fibroblast activation markers, TGF-β1 and inflammatory factors in dECM-stimulated fibroblast; type: cell-based, mouse; settings: for mRNA levels of α-SMA, FN, Col I and TGF-β1: peptide, induced by dECM-Nor and dECM-PF
Procedure: (§1) Decellularized lung ECM (dECM) was prepared as described in previous study. 2 × 10^5 cells/mL NIH3T3 cells (mouse […], purchased from the Stem Cell Bank of the Chinese Academy of Sciences, Shanghai, China) were seeded on the dECM slices attached to the bottom of the culture dish and cultured in DMEM medium containing 0.5% fetal bovine serum (Gibco, Waltham, MA, USA) at 37°C and 5% CO2.
(§2) Total RNA was extracted from cells or lung tissue (10 mg) using Trizol reagent, and mRNA was reverse transcribed into cDNA using HiScript® II QRT SuperMix for qPCR (Vazyme, #R223-01). Real-time fluorescence quantitative PCR (RT-PCR) was performed using Hieff® qPCR SYB Green Master Mix (YEASEN, #11201ES08) to obtain the Ct value. The 2^−ΔΔCt method was used to obtain the relative expression level of mRNA in each group. Primers (Table 1) were purchased from Sangon Biotech.

integrin-αvβ1 = integrin-αvβ1 (Homo sapiens, UniProt P05556+P06756); test: SPR binding of peptides to integrin-αvβ1 (Biacore 8K+); settings: Biacore 8K+, 25°C, integrin-αvβ1 on CM5 chip, PBS + 0.05% Tween-20, peptide 0.78-100 μM, Figure 7E, small labels, best readings
integrin-αvβ1, sequence (P06756 31-992 limits assumed): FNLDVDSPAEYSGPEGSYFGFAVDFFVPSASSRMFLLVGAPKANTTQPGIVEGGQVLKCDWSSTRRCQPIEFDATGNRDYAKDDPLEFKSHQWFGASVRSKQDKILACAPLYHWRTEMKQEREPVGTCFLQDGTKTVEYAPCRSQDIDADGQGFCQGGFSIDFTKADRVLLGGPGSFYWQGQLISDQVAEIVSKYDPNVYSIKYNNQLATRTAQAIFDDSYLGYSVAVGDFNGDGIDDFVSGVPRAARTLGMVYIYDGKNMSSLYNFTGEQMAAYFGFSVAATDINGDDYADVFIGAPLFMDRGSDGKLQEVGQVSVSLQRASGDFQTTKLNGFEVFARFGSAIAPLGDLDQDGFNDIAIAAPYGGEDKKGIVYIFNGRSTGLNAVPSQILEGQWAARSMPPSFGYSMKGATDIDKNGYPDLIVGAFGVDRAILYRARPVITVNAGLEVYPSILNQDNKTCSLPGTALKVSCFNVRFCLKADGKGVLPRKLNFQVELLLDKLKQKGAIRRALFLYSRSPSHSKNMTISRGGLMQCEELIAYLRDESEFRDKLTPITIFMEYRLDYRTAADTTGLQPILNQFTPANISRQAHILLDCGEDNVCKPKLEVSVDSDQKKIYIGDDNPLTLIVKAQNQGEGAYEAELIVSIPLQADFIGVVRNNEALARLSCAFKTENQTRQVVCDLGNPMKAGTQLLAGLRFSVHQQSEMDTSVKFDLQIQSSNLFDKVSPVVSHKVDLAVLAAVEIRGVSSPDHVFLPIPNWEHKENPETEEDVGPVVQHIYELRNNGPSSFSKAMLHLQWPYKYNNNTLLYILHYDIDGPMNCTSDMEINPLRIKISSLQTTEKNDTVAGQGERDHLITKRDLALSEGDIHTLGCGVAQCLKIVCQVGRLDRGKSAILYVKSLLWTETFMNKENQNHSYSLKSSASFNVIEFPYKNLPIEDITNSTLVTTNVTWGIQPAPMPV
integrin-αvβ1, sequence (P05556 21-728 partner limits assumed): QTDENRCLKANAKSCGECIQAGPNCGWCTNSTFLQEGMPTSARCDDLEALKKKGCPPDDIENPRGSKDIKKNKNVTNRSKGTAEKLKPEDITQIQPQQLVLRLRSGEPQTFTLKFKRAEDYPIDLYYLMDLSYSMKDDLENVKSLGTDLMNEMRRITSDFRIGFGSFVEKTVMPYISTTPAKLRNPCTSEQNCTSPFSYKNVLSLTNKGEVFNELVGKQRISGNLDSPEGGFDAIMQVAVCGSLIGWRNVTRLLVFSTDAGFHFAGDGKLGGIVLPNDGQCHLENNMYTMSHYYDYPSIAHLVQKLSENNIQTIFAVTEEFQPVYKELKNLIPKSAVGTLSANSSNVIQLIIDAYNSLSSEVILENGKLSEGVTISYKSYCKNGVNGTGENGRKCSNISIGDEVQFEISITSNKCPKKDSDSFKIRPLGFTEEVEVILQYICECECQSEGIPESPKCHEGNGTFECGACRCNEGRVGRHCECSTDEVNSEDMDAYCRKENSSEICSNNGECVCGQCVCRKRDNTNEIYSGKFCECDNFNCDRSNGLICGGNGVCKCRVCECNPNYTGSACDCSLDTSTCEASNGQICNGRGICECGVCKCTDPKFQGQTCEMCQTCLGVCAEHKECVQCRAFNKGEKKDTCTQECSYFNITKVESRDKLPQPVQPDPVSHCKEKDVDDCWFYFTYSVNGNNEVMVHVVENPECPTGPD
Procedure: The Biacore 8K+ system (GE Healthcare) was used at 25°C. The ligand integrin-αvβ1 (1 mg/mL) was routinely coupled to the sensor chip (Series S Sensor Chip CM5, Cytiva, #100530). The peptide samples SDC4_87-131 and CS-1, -2, -3, -4, -8, -9, -10 were dissolved in PBS, and then, the samples with different concentration gradients (0.78, 1.56, 3.125, 6.25, 12.5, 25, 50, 100 μM) were injected, respectively, under the driving of buffer PBST (PBS + 0.05% Tween-20). The signal intensity was quantified in relative units (RU), and binding affinity was determined using the dissociation constant (Kd). After the experiment, 10 mM glycine-HCl buffer solution (pH = 2) was selected to regenerate the chip surface.

pan-integrins = test: FN-coating cell adhesion assay (pan-integrins activation); type: cell-based, mouse; settings: 100 nM, n=4–5
Procedure: 10 μg/mL Fibronectin (Merck, #10838039001) was dissolved in serum-free DMEM medium and dropped into a 96-well plate, 50 μL per well. The plate was incubated at 4 °C overnight. After blocking with 3% bovine serum albumin at room temperature for 30 min, 4×10^4 cells were inoculated into each well. After incubation for 30 min, the cells were washed, fixed, and stained with crystal violet (5 mg/mL) for 30 min. Then after the crystal violet was dissolved, it was detected using an ELISA reader at 595 nm.

[1] = system: integrin-αvβ1, FAK/AKT and PKCα/NF-κB pathways in NIH3T3 cells; test: Western blot of signaling proteins in dECM-stimulated fibroblast; type: cell-based, mouse; settings: dECM, n=3; for protein levels of α-SMA, integrin-αv, p-FAK and p-PKCα: designed peptides
Procedure: as §1
20 mg of lung tissue was extracted with RIPA lysis buffer (Roche International Ltd., Bermuda, USA), and the protein concentration was determined using a BCA protein detection kit (Roche). Protein samples were separated by 10% sodium dodecyl sulfate polyacrylamide gel (SDS-PAGE) electrophoresis and transferred to a PVDF membrane. After blocking, the PVDF membrane was incubated with primary antibodies for α-SMA, Integrin-αV, SDC4, Integrin-β1, p-Smad3, FAK, and p-FAK (CST, #19245, #4711, #12236S, #34971, #9520S, #3285S, and #3284S) at 4°C overnight, followed by incubation with secondary antibodies (CST, #7074P2), development with ECL reagent (SAB), and acquisition of images with a chemiluminescence imaging system (ChemiScope 5600).

fibroblast = test: CCK-8 fibroblast viability/toxicity; type: cell-based, mouse; settings: discussion
Procedure: as §1
(A) Schematic diagram of SDC487-131; (B) Effect of SDC487-131 and GRGDNP on fibroblast proliferation at 48 h was determined by CCK-8 method (n=3); (C) Effect of different concentration of SDC487-131 on fibroblast activation induced by d-PF for 48 h (n=5). Note: **p < 0.01 vs. PBS in d-Nor group; #p < 0.05 vs. PBS in d-PF group. d-Nor: dECM-Nor; d-PF: dECM-PF.
Figure S14. The viability of fibroblast after treated with peptides for 48 h was detected by CCK-8 assay.

[2] = system: BLM-induced PF, C57BL/6J mice; test: BLM-induced PF in mice: HE, Masson, hydroxyproline; type: in vivo, mouse; settings: 1 mg/kg tracheal instillation
Procedure: C57BL/6J mice (male, 8-to 9-week old, 18–22 g, SPF grade) were purchased from Shanghai Slake Laboratory Animal Co., Ltd. [SCXK (Hu) 2022-0004, Shanghai, China]. […] The mice were housed in an SPF environment with 22–25°C, 46–65% humidity and 12 h/12 h light-dark alternation, with free access to water and food. This animal experiment was approved by the Experimental Animal Welfare Ethics Committee of Fujian Medical University (No. FJMU IACUC 2021-0465), and was carried out in accordance with the National Research Council's Guide for the Care and Use of Laboratory Animals.
(§3) After the mice were anesthetized (1% sodium pentobarbital 50 mg/kg was injected intraperitoneally), 150 μL of bleomycin (BLM, 5 mg/mL, BIO-000001) was inhaled into the lungs of the mice by tracheal inhalation instillation. One day later, the mice were randomly divided into model and drug treatment groups, and the mice in the control group were only subjected to saline inhalation.
(§4) Based on the dosage of SDC2 fragment peptide and our experimental results (Supplementary Figure S10A and B), the dosage schedule of SDC4_87-131 was set as follows: starting on the third day after BLM inhalation, 1 mg/kg, administered via trachea infusion once every three days. And Anti-SDC4(93-121) 8 mg/kg was administered on the third and tenth days (reference dosage).
Lung tissue samples were paraffin-embedded, then sliced and dewaxed, and HE and Masson staining were performed respectively. After dehydration and sealing, images were collected and analyzed using a microscope.
100 mg of lung tissue was accurately weighed and processed according to the instructions of the hydroxyproline assay kit (Nanjing Jiancheng, Nanjing, China), and the absorbance was measured at a wavelength of 550 nm. The data were expressed as micrograms (µg) of hydroxyproline per mg of dry lung tissue.

[3] = system: BLM-induced PF, C57BL/6J mice; test: BLM-induced PF in mice: RT-PCR of lung tissue; type: in vivo, mouse; settings: 1 mg/kg tracheal instillation, q3d, n=4–6
Procedure: as §3, §4, §2

Molecule	Kd (integrin-αvβ1) [µM]	effects on FN and Col I mRNA vs SDC4_87-131 (NIH3T3 cells; dECM, n=5)	mRNA levels of α-SMA, FN, Col I and TGF-β1 (NIH3T3 cells; n=5)	inhibition of pan-integrins activation vs SDC4_87-131 (pan-integrins)	protein levels of α-SMA, integrin-αv, p-FAK and p-PKCα [1]	other results
CS(=O)(=O)c1cccc(CNc2nc(Nc3ccc4c(c3)CCC(=O)N4)ncc2C(F)(F)F)c1 [PF-573228, reference compound]	–	–	–	–	–	dECM-PF-induced fibroblast activation and TGF-β1 upregulation (NIH3T3 cells; 1 μM, 3 μM, mRNA levels, n=4): significantly reduced dECM-PF-induced fibroblast activation and TGF-β1 upregulation in a dose-dependent manner
Ac-GSADPRAVPTEPKKLSPVEESEDITNSTLV-NH2 [CS-10]	0.0354	significantly greater than those of SDC4_87-131	significantly downregulate	stronger than that of SDC4_87-131	significantly decrease the protein levels	–
Ac-NHIPERAGSGSQVPTEPKKLSPVEESEDRSNKVSM-NH2 [CS-2]	0.0291	–	–	–	–	–
Ac-NHIPERAGSGSQVPTEPKKLSPVEESEDVSNKVSMTTNVT-NH2 [CS-1]	0.0128	–	–	–	–	–
Ac-NHIPERAGSGSQVPTEPKKLSPVEESEDWSNKVSM-NH2 [CS-3]	0.0649	significantly greater than those of SDC4_87-131	significantly downregulate	stronger than that of SDC4_87-131	significantly decrease the protein levels	–
Ac-NHIPERAVPTEPKKLSPVEESEDITNSTLV-NH2 [CS-8]	0.0259	significantly greater than those of SDC4_87-131	significantly downregulate	stronger than that of SDC4_87-131	significantly decrease the protein levels	–
Ac-NHIPERAVPTEPKKLSPVEESEDITNSTLVTTNVT-NH2 [CS-4]	0.0323	significantly greater than those of SDC4_87-131	significantly downregulate	stronger than that of SDC4_87-131	significantly decrease the protein levels	reduction of integrin-αv and p-FAK vs SDC4_87-131 [1]: weaker reduction in integrin-αv and p-FAK compared to SDC4_87-131
Ac-NHIPETVEDPEPKKLSPVEESEDITNSTLV-NH2 [CS-9]	0.0109	significantly greater than those of SDC4_87-131	significantly downregulate	stronger than that of SDC4_87-131	significantly decrease the protein levels	toxicity (summary) (fibroblast): low toxicity; downregulation of all four mRNAs (α-SMA, FN, Col I, TGF-β1) vs SDC4_87-131 (NIH3T3 cells; dECM, n=5): significantly higher than that of SDC4_87-131; reduction of α-SMA protein vs SDC4_87-131 [1]: stronger reduction in α-SMA than SDC4_87-131; inhibitory effect on collagen deposition vs SDC4_87-131 ([2]; q3d from day 3): significantly stronger inhibitory effect on collagen deposition than SDC4_87-131; anti-PF effect vs SDC4_87-131 ([2]; overall, q3d): significantly enhanced anti-PF effect compared with SDC4_87-131; effects on α-SMA, FN and IL-6 vs SDC4_87-131 [3]: significantly stronger than that of SDC4_87-131
